Series [1] concerns dd-strain male mice. Description: Acute toxicity test (minimum lethal dose, oral). The format is in vivo. Conditions: oral administration, three mice per group, mortality seven days after administration. On the procedure:
Test compounds were orally administered to groups of dd-strain male mice weighing 20 ± 1 g, each group consisting of three mice. Seven days after the administration, minimum lethal dose (MLD) of each compound was determined by observing the mortality.

Series [2] deals with MPTP-treated C57BL/6 mice. Description: Effect on locomotor activity in Parkinson's disease model in mice (MPTP). In kind it is in vivo. The note with it: MPTP (+), 30 minutes starting 30 minutes after administration. On the procedure:
The experiment was performed by using several groups of 7-weeks-old male C57BL/6 mice (weighing 20 to 24 g, Japan SLC), each group consisting of 8 mice. MPTP (Aldrich Chemical Co., Inc.) dissolved in a physiological saline solution (Otsuka Pharmaceutical Co., Ltd.) was intraperitoneally administered to each mouse once a day for five consecutive days at a dose of 30 mg/kg. A test compound was suspended in injectable distilled water (Otsuka Phamaceutical Co., Ltd.) containing Tween 80 [polyoxyethylene (20) sorbitan monooleate]. L-DOPA (Kyowa Hakko Kogyo Co., Ltd.) was suspended in 0.3% CMC (sodium carboxylmethylcellulose) and bromocriptine was suspended in injectable distilled water. Thirty minutes after the final MPTP administration, the test compound suspensions and the control suspension [injectable distilled water (Otsuka Pharmaceutical Co., Ltd.) containing Tween 80] containing no test compound were orally administered to separate groups of the mice (0.1 ml per 10 g of body weight). […] Statistical comparison of the values was carried out by Student's t-test.

Series [3] concerns Haloperidol-Induced Catalepsy. Description: Effect on haloperidol-induced catalepsy. In kind it is in vivo, mice. The note with it: for ED50: Mus musculus, 1 h, read-out: ED₅₀; for Number of the Animals Showing Remission: of five mice, catalepsy score not more than 4 points; for Number of the Animals Showing Remission / Remission Rate (%) / Total Score: 10 mg/kg orally; for Remission Rate (%): rate of decrease in total score based on control group; for Total Score: total catalepsy score of five mice (25 points at the full), haloperidol 1.0 mg/kg i.p. Put shortly:
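Mice got haloperidol 1.0 mg/kg i.p. in 0.3% CMC, then test compounds orally 1 hr later in 0.3% CMC or Tween 80/water. Catalepsy was scored on a 4.5 cm-high bar 1 hr after dosing; remission meant score ≤4 points. ED₅₀ came from Probit analysis.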

The subject of series [4] is Rats with a 6-Hydroxydopamine-Induced Unilateral Lesion of the Nigrostriatal Dopamine Pathway. Description: Augmentation of apomorphine-induced contralateral rotation in 6-hydroxydopamine-lesioned rats. In kind it is in vivo. The note with it: test compound 1 mg/kg orally 30 minutes before apomorphine 0.1 mg/kg s.c.; 150 minutes. The procedure: Then, the animals were anesthetized with sodium pentobarbital (30 mg/kg, i.p., Dainippon Pharm. Co., Ltd.) and the nigrostriatal pathway was lesioned by injection of 6-hydroxydopamine hydrobromide (8 µg, Sigma Co.) into the left medial forebrain bundle. 6-Hydroxydopamine hydrobromide was dissolved in physiological saline containing 0.05% L-ascorbic acid (Wako Pure Chem. Industries, Ltd.) to make 2 µl of solution and injected over 3 minutes.
More than 10 days after surgery, each rat was placed in a plastic bowl (30 cm in diameter). […] The number of rotations was counted with an automated rotometer, in which each 180° turn was counted as a rotation.
Test compounds were suspended in 0.3% sodium carboxymethylcellulose and administered orally at a dose of 1 mg/kg 30 minutes before the injection of apomorphine (0.1 mg/kg, s.c.). The counts of rotations were summed up every 5 minutes for 150 minutes after apomorphine administration. The total rotation counts induced by apomorphine (0.1 mg/kg, s.c.) with and without a test compound were statistically compared, using the same animals. Rats were allowed to rest more than 5 days between each experiment. Statistical comparison of the values was carried out by Sign-Wilcoxon test.

For series [5], the target named is T1, A₁ receptor (Cavia porcellus, UniProt P47745).
T1 construct: from tissue; host or cells: guinea pig cerebrum membrane preparation
T1 sequence (P47745 1-326): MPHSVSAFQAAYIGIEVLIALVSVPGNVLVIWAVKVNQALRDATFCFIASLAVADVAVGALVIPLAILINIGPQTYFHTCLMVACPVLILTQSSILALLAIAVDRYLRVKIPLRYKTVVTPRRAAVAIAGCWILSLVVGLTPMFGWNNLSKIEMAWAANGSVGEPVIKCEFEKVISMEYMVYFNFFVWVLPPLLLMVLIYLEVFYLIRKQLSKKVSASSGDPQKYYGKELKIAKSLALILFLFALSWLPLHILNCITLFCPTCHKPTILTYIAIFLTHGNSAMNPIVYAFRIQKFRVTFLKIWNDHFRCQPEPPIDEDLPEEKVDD
Description: Adenosine A₁ receptor binding test (³H-CHA binding). More on the design: species or system guinea pig. The note with it: guinea pig cerebrum; for inhibition at 100 µM: 10⁻⁴M; for inhibition at 10 µM: 10⁻⁵M. The procedure:
Cerebrum of a guinea pig was suspended in ice-cooled 50 mM Tris hydroxymethyl aminomethane hydrochloride (Tris HCl) buffer (pH 7.7) by using Polytron homogenizer (manufactured by […] Co.). […] The suspension was centrifuged under the same conditions, and the final precipitate was suspended once again in 50 mM Tris HCl buffer to give a tissue concentration of 100 mg (wet weight)/ml. The tissue suspension was incubated at 37°C for 30 minutes in the presence of 0.02 unit/mg tissue of adenosine deaminase (manufactured by Sigma Co.). The tissue suspension was then centrifuged (50,000 x g, 10 minutes), and 50 mM Tris HCl buffer was added to the precipitate to adjust the concentration of tissue to 10 mg (wet weight)/ml. […] The mixture solution was allowed to stand at 25°C for 90 minutes and then rapidly filtered by suction through a glass fiber filter (GF/C manufactured by Whatman Co.). […] The radioactivity on the filter was determined with a liquid scintillation counter (manufactured by Packard Instrument Co.). […] The inhibition constant (Ki value) shown in the table was calculated by the Cheng-Prusoff's equation.

Series [6] addresses T2, A₂ receptor (Rattus norvegicus, UniProt P30543).
T2 construct: from tissue; host or cells: rat corpus striatum membrane preparation
Description: Adenosine A₂ receptor binding test (³H-NECA binding). Conditions: for inhibition at 0.1 µM / inhibition at 1 µM / inhibition at 10 µM / inhibition at 100 µM: read-out: Inhibition (%) A₂ Receptor; for Ki: ³H-NECA binding.

For series [7], the target named is T2, A₂ receptor. Description: Adenosine A₂ receptor binding test (³H-CGS 21680 binding). Conditions: [^3H]CGS 21680 was used, rat corpus striatum, read-out: A2 Receptor Inhibition (%). Put shortly: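 Rat corpus striatum membranes (5 mg wet weight/ml) in 50 mM Tris HCl with 10 mM MgCl2 and adenosine deaminase, incubated with 4.0 nM ³H-CGS 21680. Nonspecific binding defined with 100 µM CPA; percent inhibition of specific binding calculated at single test concentrations.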

[8] abbreviates: ten mice at each dose, effective = catalepsy score 3 or less, Probit analysis, oral.

Molecules are shown by their SMILES. Like-named read-outs stand apart in the source and are kept apart here. A value given as a limit tells only on which side of the number the result lay.

T2 sequence (P30543 whole entry): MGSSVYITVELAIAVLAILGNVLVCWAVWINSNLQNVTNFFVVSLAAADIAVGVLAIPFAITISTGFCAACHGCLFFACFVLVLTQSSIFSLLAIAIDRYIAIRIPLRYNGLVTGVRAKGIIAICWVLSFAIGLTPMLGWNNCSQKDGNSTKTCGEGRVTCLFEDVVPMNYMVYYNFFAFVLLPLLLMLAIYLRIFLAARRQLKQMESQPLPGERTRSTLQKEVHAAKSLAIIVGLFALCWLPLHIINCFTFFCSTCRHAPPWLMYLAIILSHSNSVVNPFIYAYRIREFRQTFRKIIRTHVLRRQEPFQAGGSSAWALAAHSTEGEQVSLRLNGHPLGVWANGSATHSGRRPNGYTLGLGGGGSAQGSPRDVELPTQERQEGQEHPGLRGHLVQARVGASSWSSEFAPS

For the molecule `CCn1c(=O)c2c(nc(/C=C/c3ccc(OC)c(OC)c3)n2C)n(CC)c1=O` [Compound 2, (E)-8-(3,4-Dimethoxystyryl)-1,3-diethyl-7-methylxanthine], the MLD in series [1] is above 300 mg/kg. Besides, in series [2] (test compound 0.63 mg/kg orally), the “Amount of Active Movements (average count ± S.E.M)” value (“Amount of Active Movements” below) is 610 ±147.9 count. Also, in series [2] (test compound 2.5 mg/kg orally), the “Amount of Active Movements” value is given as 1265 ±316.9 count. Further, the ED50 in series [3] (setting [8]) was determined as 0.03 mg/kg. In series [3], the “Number of the Animals Showing Remission” value was 5, the “Remission Rate (%)” value was 80% and the “Total Score” value is recorded as 2. Besides, the “total amount of rotations (average count ± S.E.M.) test compound + apomorphine” value (shortened to “total amount of rotations”) in series [4] is 1584 ± 196 count.
Take `CCn1c(=O)c2c(nc(/C=C/c3ccc(OC)c(OC)c3OC)n2C)n(CC)c1=O` [Compound 8, (E)-1,3-Diethyl-7-methyl-8-(2,3,4-trimethoxystyryl)xanthine]: the MLD in series [1] is above 300 mg/kg. Also, in series [5], the inhibition (usually the relative decrease from the control value, in per cent) at 100 µM amounted to 94% and the inhibition at 10 µM came to 89%. Further, in series [6], the inhibition at 0.1 µM is 80%, the inhibition at 1 µM was determined as 99%, the inhibition at 10 µM stood at 95% and the inhibition at 100 µM was found to be 74%. Further, affinity in series [6] was put at a Ki of 3.9 nM. The “Amount of Active Movements” value in series [2] (test compound 2.5 mg/kg orally) was 800 ±156.8 count. In addition, the ED50 in series [3] (setting [8]) was determined as 0.23 mg/kg. In addition, in series [3], the “Number of the Animals Showing Remission” value amounted to 5, the “Remission Rate (%)” value was determined as 92% and the “Total Score” value is reported as 2. The “total amount of rotations” value in series [4] was found to be 1406 ± 155 count.
In series [1], `CCn1c(=O)c2c(nc(/C=C/c3ccc(OC)c(C)c3C)n2C)n(CC)c1=O` [Compound 10, (E)-1,3-Diethyl-8-(4-methoxy-2,3-dimethylstyryl)-7-methylxanthine] gave an MLD above 300 mg/kg. In series [5], this molecule had an inhibition at 100 µM of 56% and an inhibition at 10 µM of 57%. In addition, in series [6], the inhibition at 0.1 µM was 91%, the inhibition at 1 µM is 94%, the inhibition at 10 µM is 90% and the inhibition at 100 µM stood at 93%. Affinity in series [6] was put at a Ki of 2 nM. Further, in series [2] (test compound 10 mg/kg orally), the “Amount of Active Movements” value is reported as 754 ±174.2 count. Besides, the ED50 in series [3] (setting [8]) was 0.24 mg/kg. Moreover, in series [3], the “Number of the Animals Showing Remission” value turned out to be 5 and the “Remission Rate (%)” value amounted to 68%. The “total amount of rotations” value in series [4] came to 1637 ± 127 count.
On to `CCn1c(=O)c2c(nc(/C=C/c3ccc(OC)c(C)c3OC)n2C)n(CC)c1=O` [Compound 14, (E)-8-(2,4-Dimethoxy-3-methylstyryl)-1,3-diethyl-7-methylxanthine], for which, in series [1], the MLD is on record as above 300 mg/kg. Moreover, the Ki (in general, a measure of affinity in units of concentration, obtained from inhibition or displacement) in series [6] turned out to be 1.6 nM. Further, the “Amount of Active Movements” value in series [2] (test compound 10 mg/kg orally) stood at 817 ±163.1 count. Further, in series [3] (po), the ED50 was 0.6 mg/kg. For the same molecule, in series [3], the “Number of the Animals Showing Remission” value amounted to 5, the “Remission Rate (%)” value came out at 92% and the “Total Score” value is reported as 1. Besides, the “total amount of rotations” value in series [4] came to 1378 ± 216 count.
For the molecule `CCn1c(=O)c2c(nc(/C=C/c3cc(OC)c4c(c3)OCO4)n2C)n(CC)c1=O` [Compound 107, (E)-1,3-Diethyl-8-(3-methoxy-4,5-methylenedioxystyryl)-7-methylxanthine], the MLD in series [1] was above 100 mg/kg. In series [7] (10^-6M), the inhibition at 1 µM is 84%. The inhibition at 0.1 µM in series [7] (10^-7M) is 93%. Moreover, the “Amount of Active Movements” value in series [2] (test compound 2.5 mg/kg orally) worked out at 604 ±192.6 count. In addition, the ED50 in series [3] (setting [8]) was determined as 0.01 mg/kg. In addition, in series [3], the “Number of the Animals Showing Remission” value is reported as 5, the “Remission Rate (%)” value is reported as 92% and the “Total Score” value was found to be 3. The “total amount of rotations” value in series [4] was 1490 ± 146 count.

The record behind these values is patent EP0590919A1, “Therapeutic agents for parkinson's disease” (KYOWA HAKKO KOGYO CO., LTD., priority 1992, dated 1994).
